Measured values as given in patent US8685987B2, “Substituted [1,2,4]triazolo[1,5-a]pyrimidines and their use as potassium channel modulators” (Ataxion, Inc., priority 2009, dated 2014).

Molecular target: T1, hSK1 channels (Homo sapiens, UniProt Q92952)
T1 construct: expressed in transfected cells; host or cells: HEK293
Test: Whole-cell patch-clamp recording of SK current in HEK293 cells expressing hSK1 channels
Assay type: cell-based
Details: SK1 activation
Text: The compounds of the invention may be tested for their ability to modulate SK channels in vitro. Functional modulation can be determined by measuring the compound-induced change in SK current by the patch clamp technique as described in Strøbk et al.: “Pharmacological characterization of small-conductance Ca^2+-activated K channels expressed in HEK293 cells”, British Journal of Pharmacology (2000) 129, 991-999. From this type of measurements the potency of a given compound can be determined as e.g. Ki or IC50 values for blockers/inhibitors and EC50 values for openers/activators. Similar data can be obtained from other patch clamp configurations and from channels expressed endogenously in various cell lines.
The ionic current through small-conductance Ca^2+-activated K^+ channels (SK channels, subtype 1) is recorded using the whole-cell configuration of the patch-clamp technique in a classic patch-clamp set-up using HEK293 tissue culture cells expressing hSK1 channels as described in e.g. WO 2006/100212.
The SC100 value determined is defined as the Stimulating Concentration required for increasing the baseline current by 100%. The below SC100 values are an indication of the SK1 activating properties of the compounds of the invention.

Molecule	The SC100 (Stimulating Concentration required for increasing the baseline current by 100%) [µM]
CCCON=CNc1nc2nccc(C(C)Oc3ccc(Cl)cc3C)n2n1 (stereo not drawn) [Example 5, N-{7-[1-(4-Chloro-2-methylphenoxy)ethyl]-[1,2,4]triazolo[1,5-a]pyrimidin-2-yl}-N′-propyloxy-formamidine]	0.003
CON=CNc1nc2nccc(C(C)Oc3ccc(Br)cc3)n2n1 (stereo not drawn) [Example 1, N-{7-[1-(4-Bromophenoxy)ethyl]-[1,2,4]triazolo[1,5-a]pyrimidin-2-yl}-N′-methoxy-formamidine]	0.015
CON=CNc1nc2nccc(C(C)Oc3ccc(Cl)cc3Cl)n2n1 (stereo not drawn) [Example 2, N-{7-[1-(2,4-Dichlorophenoxy)ethyl]-[1,2,4]triazolo[1,5-a]pyrimidin-2-yl}-N′-methoxy-formamidine]	0.005
N-{7-[1-(4-Chloro-2-methylphenoxy)-ethyl]-6-methyl-[1,2,4]triazolo[1,5-a]pyrimidin-2-yl}-N′-hydroxy-formamidine [Example 4]	0.20
Cc1cc(Cl)ccc1OC(C)c1ccnc2nc(NC=NOC(C)C)nn12 (stereo not drawn) [Example 6, N-{7-[1-(4-Chloro-2-methylphenoxy)ethyl]-[1,2,4]triazolo[1,5-a]pyrimidin-2-yl}-N′-isopropyloxy-formamidine]	0.40
CON=CNc1nc2nccc(C(C)(C)Oc3ccc(Cl)cc3C)n2n1 [Example 7, N-{7-[1-(4-Chloro-2-methylphenoxy)-1-methyl-ethyl]-[1,2,4]triazolo[1,5-a]pyrimidin-2-yl}-N′-methoxy-formamidine]	0.60
CON=CNc1nc2nccc(C(C)Oc3ccc(F)cc3)n2n1 (stereo not drawn) [Example B, N-{7-[1-(4-Fluorophenoxy)ethyl]-[1,2,4]triazolo[1,5-a]pyrimidin-2-yl}-N′-methoxy-formamidine]	0.075
CON=CNc1nc2nccc(C(C)Oc3ccc(Cl)cc3)n2n1 (stereo not drawn) [Example 3, N-{7-[1-(4-Chlorophenoxy)ethyl]-[1,2,4]triazolo[1,5-a]pyrimidin-2-yl}-N′-methoxy-formamidine]	0.04
CON=CNc1nc2nccc(C(C)Oc3ccc(Cl)cc3C)n2n1 (stereo not drawn) [Example A, N-{7-[1-(4-Chloro-2-methylphenoxy)ethyl]-[1,2,4]triazolo[1,5-a]pyrimidin-2-yl}-N′-methoxy-formamidine]	0.008
